Columns and labels:
[1] = Antimicrobial activity against ciprofloxacin-resistant Campylobacter fetus subsp. fetus 1516477 human isolate lacking tet(44) and ant(6)-Ib resistance genes in presence of 5% lacked horse blood
[2] = Antimicrobial activity against kanamycin-resistant Campylobacter fetus subsp. fetus CA74 harboring deletion in tet(44)::pCA64 resistant gene in presence of 5% lacked horse blood; assay type: functional
[3] = Antimicrobial activity against Campylobacter fetus subsp. fetus CA80 harboring ciprofloxacin-resistant gene and IMD523-06 pathogenicity island with tet(44) and ant(6)-Ib resistant marker gene in presence of 5% lacked horse blood; assay type: functional
[4] = Antimicrobial activity against nalidixic acid-resistant Campylobacter fetus subsp. fetus IMD523-06 bovine isolate harboring tet(44) and ant(6)-Ib resistance gene in presence of 5% lacked horse blood; assay type: functional
[5] = Antimicrobial activity against kanamycin-resistant Campylobacter fetus subsp. fetus CA76 harboring deletion in ant(6)-Ib::pCA76 in presence of 5% lacked horse blood; assay type: functional
[6] = Antimicrobial activity against Campylobacter fetus subsp. fetus CA73 harboring pCA73 carrying tet(44) resistance gene of 1516477 in presence of 5% lacked horse blood; assay type: functional
[7] = Antimicrobial activity against Campylobacter fetus subsp. fetus CA75 harboring pCA75 carrying ant(6)-Ib resistant gene of 1516477 in presence of 5% lacked horse blood; assay type: functional

Row | SMILES | MIC [1] | MIC [2] | MIC [3] | MIC [4] | MIC [5] | MIC [6] | MIC [7]
1 | C[C@H]1c2cccc(O)c2C(=O)C2=C(O)[C@]3(O)C(=O)C(C(N)=O)=C(O)[C@@H](N(C)C)[C@@H]3[C@@H](O)[C@@H]21.O [DOXYCYCLINE] | 0.5 µg/mL | 0.5 µg/mL | 4 µg/mL | 8 µg/mL | 8 µg/mL | 32 µg/mL | 0.5 µg/mL
2 | CN(C)c1ccc(O)c2c1C[C@H]1C[C@H]3[C@H](N(C)C)C(O)=C(C(N)=O)C(=O)[C@@]3(O)C(O)=C1C2=O [MINOCYCLINE] | 1 µg/mL | 2 µg/mL | 16 µg/mL | 16 µg/mL | 16 µg/mL | 32 µg/mL | 1 µg/mL
3 | CN[C@@H]1[C@H](O[C@H]2[C@H](O[C@H]3[C@H](O)[C@@H](O)[C@H](N=C(N)N)[C@@H](O)[C@@H]3N=C(N)N)O[C@@H](C)[C@]2(O)C=O)O[C@@H](CO)[C@H](O)[C@H]1O [STREPTOMYCIN] | ≤ 1 µg/mL | > 64 µg/mL | 64 µg/mL | > 64 µg/mL | ≤ 1 µg/mL | ≤ 1 µg/mL | 64 µg/mL
4 | CN(C)[C@@H]1C(O)=C(C(N)=O)C(=O)[C@@]2(O)C(O)=C3C(=O)c4c(O)cccc4[C@@](C)(O)[C@H]3C[C@@H]12 [TETRACYCLINE] | 1 µg/mL | 1 µg/mL | 16 µg/mL | 16 µg/mL | 16 µg/mL | > 32 µg/mL | 1 µg/mL
